The source made the active and inactive calls.
Experiments:
[1] = Luminescence Cell-Based Dose Response HTS to Identify Activators of Luciferase Translation or Activity in H4 […] Cells. [Related pubchem assays: 1829 (Project Summary), 1814 (Primary HTS)]; format: functional
[2] = molecular target: T1, Nuclear receptor subfamily 0 group B member 1 (Homo sapiens, UniProt P51843); assay: Luminescence-based cell-based high throughput dose response assay for inhibitors of the orphan nuclear receptor subfamily 0, group B, member 1 (DAX1; NR0B1). [Related pubchem assays (depositor defined):AID504766, AID504790]; format: functional
T1 sequence (P51843 whole entry): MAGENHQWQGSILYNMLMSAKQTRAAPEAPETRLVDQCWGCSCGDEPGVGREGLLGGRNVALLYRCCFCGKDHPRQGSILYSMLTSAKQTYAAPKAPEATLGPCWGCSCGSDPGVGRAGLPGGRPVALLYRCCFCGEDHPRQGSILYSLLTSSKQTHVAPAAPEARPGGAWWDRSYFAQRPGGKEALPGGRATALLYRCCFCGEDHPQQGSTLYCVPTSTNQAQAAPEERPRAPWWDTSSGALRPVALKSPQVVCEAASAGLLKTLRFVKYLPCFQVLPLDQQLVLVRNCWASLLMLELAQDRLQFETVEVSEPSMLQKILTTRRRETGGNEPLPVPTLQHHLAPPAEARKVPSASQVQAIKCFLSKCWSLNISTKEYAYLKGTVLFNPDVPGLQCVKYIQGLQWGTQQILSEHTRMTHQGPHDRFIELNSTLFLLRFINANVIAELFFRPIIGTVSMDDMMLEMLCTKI

HEK293 = assay: cells; format: functional, cell-based; conditions: Homo sapiens
Escherichia coli = assay: microbe, parasite or virus in culture
Cannabinoid receptor 1 [3] = molecular target: T2, Cannabinoid receptor 1 (Homo sapiens, UniProt P21554); assay: SAR analysis of agonists of the Cannabinoid Receptor 1 using an Image-Based Assay - Set 4. [Related pubchem assays (depositor defined):AID2013, AID2026]; format: functional
Cannabinoid receptor 2 [4] = molecular target: T3, Cannabinoid receptor 2 (Homo sapiens, UniProt P34972); assay: SAR analysis of antagonists of the Cannabinoid Receptor 2 using an Image-Based Assay - Set 3. [Related pubchem assays (depositor defined):AID2013, AID2026]; format: functional
Cannabinoid receptor 2 [5] = molecular target: T3, Cannabinoid receptor 2; assay: SAR analysis of agonists of the Cannabinoid Receptor 2 using an Image-Based Assay - Set 3. [Related pubchem assays (depositor defined):AID2013, AID2026]; format: functional
Cannabinoid receptor 1 [6] = molecular target: T2, Cannabinoid receptor 1; assay: SAR analysis of antagonists of the Cannabinoid Receptor 1 using an Image-Based Assay - Set 4. [Related pubchem assays (depositor defined):AID2013, AID2026]; format: functional
[7] = molecular target: T4, G-protein coupled receptor 35 (Homo sapiens, UniProt Q9HC97); assay: SAR analysis of Antagonists of the GPR35 Receptor using an Image-Based Assay - Set 6. [Related pubchem assays (depositor defined):AID2013, AID2026]; format: functional
[8] = molecular target: T4, G-protein coupled receptor 35; assay: SAR analysis of Agonists of the GPR35 Receptor using an Image-Based Assay - Set 4. [Related pubchem assays (depositor defined):AID2013, AID2026]; format: functional
[9] = molecular target: G-protein coupled receptor 55 (Homo sapiens, UniProt Q9Y2T6); assay: SAR Analysis of Selective Antagonists of GPR55 using an Image-Based Assay - Set 4. [Related pubchem assays (depositor defined):AID2013, AID2026]; format: functional;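 also: antagonism of response to 5 µM lysophosphatidylinositol agonist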
CAAX prenyl protease 2 [10] = molecular target: T5, CAAX prenyl protease 2 (Homo sapiens, UniProt Q9Y256); assay: inhibition of Ras-converting CAAX protease Rce1 – biochemical, yeast membranes, quenched-peptide fluorescence, cherry-pick, dose response (AID 588849)
T5 sequence (Q9Y256 whole entry): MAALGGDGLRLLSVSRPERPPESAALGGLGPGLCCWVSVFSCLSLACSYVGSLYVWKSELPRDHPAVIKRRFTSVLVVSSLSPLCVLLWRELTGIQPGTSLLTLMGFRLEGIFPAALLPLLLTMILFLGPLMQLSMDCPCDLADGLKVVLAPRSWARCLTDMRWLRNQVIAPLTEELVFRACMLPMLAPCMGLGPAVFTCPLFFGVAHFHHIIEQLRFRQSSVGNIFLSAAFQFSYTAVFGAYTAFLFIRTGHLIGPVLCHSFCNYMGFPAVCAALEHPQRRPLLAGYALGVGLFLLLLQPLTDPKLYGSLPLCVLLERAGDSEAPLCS

Trypsin = Trypsin (Sus scrofa, UniProt P00761); assay: trypsin protease activity blockade – biochemical, quenched peptide fluorescence, cherry-pick, selectivity assay for Rce1 protease inhibitor project, dose response (AID 488789)
CAAX prenyl protease 2 [11] = molecular target: T6, CAAX prenyl protease 2 (Saccharomyces cerevisiae S288c, UniProt Q03530); format: biochemical
T6 sequence (Q03530 whole entry): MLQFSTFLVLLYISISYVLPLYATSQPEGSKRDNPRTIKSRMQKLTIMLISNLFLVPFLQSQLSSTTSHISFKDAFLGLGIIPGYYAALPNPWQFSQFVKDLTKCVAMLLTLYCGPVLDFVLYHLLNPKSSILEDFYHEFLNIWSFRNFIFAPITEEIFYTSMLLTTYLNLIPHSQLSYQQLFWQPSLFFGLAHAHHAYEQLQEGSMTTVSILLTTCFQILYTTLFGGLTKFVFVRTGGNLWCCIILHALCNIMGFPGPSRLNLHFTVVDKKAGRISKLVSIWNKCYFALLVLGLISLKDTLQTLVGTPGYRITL

T4 sequence (Q9HC97 whole entry): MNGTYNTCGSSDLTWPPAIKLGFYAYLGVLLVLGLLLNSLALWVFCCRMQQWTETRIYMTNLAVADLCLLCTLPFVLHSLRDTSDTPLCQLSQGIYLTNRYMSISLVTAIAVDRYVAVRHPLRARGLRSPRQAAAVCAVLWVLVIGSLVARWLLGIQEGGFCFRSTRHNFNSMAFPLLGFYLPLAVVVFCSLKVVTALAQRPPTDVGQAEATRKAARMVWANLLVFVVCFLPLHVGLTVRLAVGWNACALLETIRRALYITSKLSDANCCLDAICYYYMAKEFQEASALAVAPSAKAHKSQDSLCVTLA
Sequence of G-protein coupled receptor 55 (Q9Y2T6 whole entry): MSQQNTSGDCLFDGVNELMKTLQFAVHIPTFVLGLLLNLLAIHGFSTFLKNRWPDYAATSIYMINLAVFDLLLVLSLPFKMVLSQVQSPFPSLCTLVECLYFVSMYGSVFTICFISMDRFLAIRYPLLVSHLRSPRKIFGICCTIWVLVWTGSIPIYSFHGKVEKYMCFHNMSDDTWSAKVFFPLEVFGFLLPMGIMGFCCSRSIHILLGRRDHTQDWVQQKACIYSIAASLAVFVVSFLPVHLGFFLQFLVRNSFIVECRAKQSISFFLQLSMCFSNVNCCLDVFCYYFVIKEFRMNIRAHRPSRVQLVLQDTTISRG
T3 sequence (P34972 whole entry): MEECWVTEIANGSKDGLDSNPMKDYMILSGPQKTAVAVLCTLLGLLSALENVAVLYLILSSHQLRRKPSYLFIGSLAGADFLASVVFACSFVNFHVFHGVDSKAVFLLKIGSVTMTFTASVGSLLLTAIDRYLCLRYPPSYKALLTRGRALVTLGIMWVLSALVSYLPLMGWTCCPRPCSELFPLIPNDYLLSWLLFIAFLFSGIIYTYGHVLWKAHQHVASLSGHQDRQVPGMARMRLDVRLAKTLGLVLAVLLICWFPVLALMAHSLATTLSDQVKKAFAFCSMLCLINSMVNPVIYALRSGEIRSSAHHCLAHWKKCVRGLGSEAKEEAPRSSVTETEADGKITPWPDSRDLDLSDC
T2 sequence (P21554 whole entry): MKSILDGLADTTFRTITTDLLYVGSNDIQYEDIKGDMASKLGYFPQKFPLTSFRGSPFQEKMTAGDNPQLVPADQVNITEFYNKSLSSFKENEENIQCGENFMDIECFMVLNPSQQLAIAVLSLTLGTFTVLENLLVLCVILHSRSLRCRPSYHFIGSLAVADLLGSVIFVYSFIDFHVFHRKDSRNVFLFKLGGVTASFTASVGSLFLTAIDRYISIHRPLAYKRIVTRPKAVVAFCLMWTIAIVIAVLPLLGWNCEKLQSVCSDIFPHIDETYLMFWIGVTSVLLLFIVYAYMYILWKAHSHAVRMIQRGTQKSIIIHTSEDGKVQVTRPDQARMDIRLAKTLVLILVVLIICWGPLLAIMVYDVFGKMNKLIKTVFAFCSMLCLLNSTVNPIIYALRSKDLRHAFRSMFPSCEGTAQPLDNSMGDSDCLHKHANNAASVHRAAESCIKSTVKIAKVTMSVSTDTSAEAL
Sequence of Trypsin (P00761 whole entry): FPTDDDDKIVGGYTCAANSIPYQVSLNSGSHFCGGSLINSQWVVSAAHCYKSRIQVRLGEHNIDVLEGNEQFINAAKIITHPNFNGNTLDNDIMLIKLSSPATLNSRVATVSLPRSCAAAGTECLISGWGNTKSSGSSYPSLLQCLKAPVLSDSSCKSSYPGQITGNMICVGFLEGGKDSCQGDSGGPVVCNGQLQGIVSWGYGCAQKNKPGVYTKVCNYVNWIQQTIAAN

## O=C(Nc1ccc(F)cc1)/C(Cl)=C/c1ccccc1
[1]
  EC50: 5.09 µM (active)
[2]
  IC50: > 67.5 µM (inactive)
HEK293
  IC50: > 67.5 µM (inactive)

## Cc1nc(-c2cccc(S(=O)(=O)N3CCOCC3)c2)cs1
Escherichia coli
  AC50: 35.7 µM (active)

## CC(C)NC(=O)c1cc2c(=O)n3ccccc3nc2n(C2CCCC2)c1=N
Cannabinoid receptor 1 [3]
  EC50: > 32 µM (inactive)
Cannabinoid receptor 2 [4]
  IC50: > 32 µM (inactive)
Cannabinoid receptor 2 [5]
  EC50: 9.06 µM (active)
Cannabinoid receptor 1 [6]
  IC50: > 32 µM (inactive)
[7]
  IC50: > 32 µM (inactive)
[8]
  EC50: > 32 µM (inactive)
[9]
  IC50: > 32 µM (inactive)

## Cc1nnc(-c2ccc(Cl)cc2)c2cn(-c3ccccc3)nc12
Cannabinoid receptor 1 [3]
  EC50: > 32 µM (inactive)
Cannabinoid receptor 2 [4]
  IC50: 19.5 µM (inactive)
Cannabinoid receptor 2 [5]
  EC50: > 32 µM (inactive)
Cannabinoid receptor 1 [6]
  IC50: 3.58 µM (active)
[7]
  IC50: > 32 µM (inactive)
[8]
  EC50: > 32 µM (inactive)
[9]
  IC50: 19.2 µM (inactive)

## COc1ccc(-c2nnc(C)c3nn(-c4ccc(Cl)cc4)cc23)cc1
Cannabinoid receptor 1 [3]
  EC50: > 32 µM (inactive)
Cannabinoid receptor 2 [4]
  IC50: 13.2 µM (inactive)
Cannabinoid receptor 2 [5]
  EC50: > 32 µM (inactive)
Cannabinoid receptor 1 [6]
  IC50: 1.47 µM (active)
[7]
  IC50: > 32 µM (inactive)
[8]
  EC50: > 32 µM (inactive)
[9]
  IC50: 3.56 µM (active)

## CCn1c2ccccc2c2cc(/C=N/NC(=O)c3ccc(O)cc3)ccc21
CAAX prenyl protease 2 [10]
  AC50: 40.3 µM (active)
Trypsin
  AC50: 4.51 µM (active)
CAAX prenyl protease 2 [11]
  AC50: 21.6 µM (active)

## Fc1ccccc1/C=N/Nc1cc(N2CCCCC2)ncn1
[2]
  IC50: > 67.5 µM (inactive)
HEK293
  IC50: > 67.5 µM (inactive)

From ChEMBL document CHEMBL1201862, “PubChem BioAssay data set” (2004)
